Assay: clinical studies using ibandronate in rapidly releasing coated oral administration forms (tolerability)
Format: in vivo, patients
Excerpt: The film dissolving upon contact with digestive juice is preferably a coating which dissolves pH-independently. The adjuvant coating may be coated using methods common in pharmaceutical technology. […] This is particularly advantageous since the administration forms of the invention are also well-tolerated by patients lying in bed.

[1] = administration forms coated with a film which quickly releases the active substance

Q: Which results are given for CCCCCN(C)CCC(O)(P(=O)(O)O)P(=O)(O)O [ibandronate, 1-hydroxy-3-(N-methyl-N-pentyl)aminopropyl-1,1-diphosphonic acid]?
A: irritations in the oesophagus when swallowing the tablets [1]: no irritations in the oesophagus; oesophagitis [1]: does not occur; cases of nausea, vomiting, pain or diarrhoea (patients treated with rapidly releasing administration forms, compared to what is otherwise observed when administering aminobisphosphonates): significantly less cases; side effects observed in clinical studies (peroral forms coated with film that dissolves pH-independently, even at high dosages): no significant side effects

Source: patent publication US20050089573A1, “Oral pharmaceutical formulation containing ibandronate” (F. HOFFMANN-LA ROCHE, priority 1996, published 2005)
